Test results as given in patent US11999742B2, “Substituted pyrrolo[1,2-b]pyridazines as anthelmintics” (BOEHRINGER INGELHEIM VETMEDICA GMBH, priority 2021, dated 2024).

Assays:
[1] = test system: Dirofilaria immitis (JYD-34 isolate); experiment: In vivo efficacy against resistant JYD-34 isolate in immune-deficient NSG mice; settings: po, 1080 h, read-out: efficacy (live D. immitis larvae recovered), NSG mice, oral 25 mg/kg on Day 1, 15 and 30, count at Day 45
[2] = test system: Dirofilaria immitis (JYD-34 isolate); experiment: In vivo efficacy against resistant JYD-34 isolate in beagle dogs (Biological Example 8); settings: for efficacy at preventing infections with adult heartworm: beagles
[3] = test system: Dirofilaria immitis (JYD-34 isolate); experiment: In vivo efficacy at two dosages against resistant JYD-34 isolate in beagle dogs (Biological Example 7); settings: for % Efficacy / Geometric Mean Live Heartworm Count: beagle dogs, JYD-34 isolate; for efficacy against adult heartworm: beagles
[4] = test system: Dirofilaria immitis (JYD-34 isolate); experiment: In vivo efficacy against resistant JYD-34 isolate in beagle dogs (Biological Example 6); settings: necropsy day 120; for % Efficacy / Geometric Mean Live Heartworm Count: beagle dogs, JYD-34 isolate, 5 mg/kg oral, four times at monthly intervals (Days 0, 27, 55, 84); for efficacy against adult heartworm compared with Interceptor: beagles, oral 5 mg/kg four times at monthly intervals
[5] = beagle dogs, JYD-34 isolate, 5 mg/kg monthly for four months
[6] = 5 mg/kg single dose monthly for four months
[7] = 10 mg/kg (over 2 consecutive days, 5 mg/kg each) monthly for four months
[8] = 5 mg/kg monthly for four months on two consecutive days

**Q.** How did the inhibition in vivo at 25 mg/kg [1] turn out when `CC(C)(C)c1c(C(=O)N[C@H]2CCOc3ccccc32)cnn2c(-c3cc(Cl)cc(Cl)c3Cl)c(Cl)cc12` [Compound A522] was run?
**A.** > 90%

**Q.** For `Cc1cc2c(C(C)(C)C)c(C(=O)N[C@H]3CCOc4ccccc43)cnn2c1-c1cc(Cl)cc(Cl)c1Cl` [Compound A472], which “% Efficacy” value [2, 5] is on record?
**A.** 100.0%

**Q.** What about the “Live Heartworm Count (geo. mean)” value [2, 5] of the same compound?
**A.** 0

**Q.** What about the “efficacy at preventing infections with adult heartworm” value ([2]; 5 mg/kg body weight monthly for four months) of the same compound?
**A.** 100%

**Q.** What about the inhibition in vivo at 25 mg/kg [1] of the same compound?
**A.** > 90%

**Q.** With `Cc1cc2c(C(C)C)c(C(=O)N[C@H]3CCOc4ccccc43)cnn2c1-c1cc(F)cc(Cl)c1Cl` [Compound A489] as the compound, how does the inhibition in vivo at 25 mg/kg [1] read?
**A.** 70 to 90%

**Q.** With `CC(C)(C)c1c(C(=O)N[C@H]2CCOc3ccccc32)cnn2c(-c3c(F)cc(F)cc3F)c(Cl)cc12` [Compound A484] as the compound, how does the inhibition in vivo at 25 mg/kg [1] read?
**A.** 50 to 70%

**Q.** Which inhibition in vivo at 25 mg/kg [1] does the source give for `O=C(N[C@H]1CCOc2ccccc21)c1cnn2c(-c3cc(F)cc(Cl)c3Cl)c(Cl)cc2c1N1CC(F)(F)C1` [Compound A507] here?
**A.** > 90%

**Q.** Which “% Efficacy” value [3, 6] does the source give for `Cc1cc2c(C(C)(C)C)c(C(=O)N[C@H]3CCOc4ccccc43)cnn2c1-c1cc(F)cc(Cl)c1Cl` [Compound A481, 4-tert-butyl-7-(2,3-dichloro-5-fluorophenyl)-N-[(4S)-3,4-dihydro-2H-1-benzopyran-4-yl]-6-methylpyrrolo[1,2-b]pyridazine-3-carboxamide] here?
**A.** 64.2%

**Q.** What about the “Geometric Mean Live Heartworm Count” value [3, 6] of the same compound?
**A.** 11.3

**Q.** And the “% Efficacy” value [3, 7]?
**A.** 98.0%

**Q.** And the “Geometric Mean Live Heartworm Count” value [3, 7]?
**A.** 0.6

**Q.** And the “efficacy against adult heartworm” value [3, 8]?
**A.** about 98%

**Q.** And the inhibition in vivo at 25 mg/kg [1]?
**A.** 70 to 90%

**Q.** How did the inhibition in vivo at 25 mg/kg [1] turn out when `Cc1cc2c(C(C)(C)C)c(C(=O)N[C@H]3CCOc4ccccc43)cnn2c1-c1cc(F)cc(F)c1F` [Compound A566] was run?
**A.** 70 to 90%

**Q.** How did the inhibition in vivo at 25 mg/kg [1] turn out when `Cc1cc2c(N3CCOCC3)c(C(=O)N[C@H]3CCOc4ccccc43)cnn2c1-c1cc(Cl)cc(Cl)c1Cl` [Compound A501] was run?
**A.** 70 to 90%

**Q.** With `CC(C)(C)c1c(C(=O)N[C@H]2CCOc3ccccc32)cnn2c(-c3cc(F)cc(F)c3F)c(Cl)cc12` [Compound A486] as the compound, how does the inhibition in vivo at 25 mg/kg [1] read?
**A.** 70 to 90%

**Q.** For milbemycin oxime [reference compound], which “efficacy at preventing infections with adult heartworm” value ([2]; Interceptor (milbemycin oxime) positive control group) is on record?
**A.** 16.6%

**Q.** Which inhibition in vivo at 25 mg/kg [1] does the source give for `Cc1cc2c(N3CCOCC3)c(C(=O)N[C@H]3CCOc4ccccc43)cnn2c1-c1cc(F)cc(F)c1F` [Compound A491] here?
**A.** < 50%

**Q.** With `Cc1cc2c(C(C)(C)C)c(C(=O)N[C@H]3CCOc4ccccc43)cnn2c1-c1cc(Cl)cc(Cl)c1` [Compound A464] as the compound, how does the “% Efficacy” value [4] read?
**A.** 38.2%

**Q.** What about the “Geometric Mean Live Heartworm Count” value [4] of the same compound?
**A.** 16.7

**Q.** What about the “efficacy against adult heartworm compared with Interceptor” value [4] of the same compound?
**A.** more effective than the commercial product Interceptor™

**Q.** What about the inhibition in vivo at 25 mg/kg [1] of the same compound?
**A.** 70 to 90%

**Q.** Which inhibition in vivo at 25 mg/kg [1] does the source give for `CC(C)(C)c1c(C(=O)N[C@H]2CCOc3ccccc32)cnn2c(-c3cc(F)cc(Cl)c3Cl)c(Cl)cc12` [Compound A502, 4-tert-butyl-6-chloro-7-(2,3-dichloro-5-fluorophenyl)-N-[(4S)-3,4-dihydro-2H-1-benzopyran-4-yl]pyrrolo[1,2-b]pyridazine-3-carboxamide] here?
**A.** 70 to 90%

**Q.** With `CN(C)c1c(C(=O)N[C@H]2CCOc3ccccc32)cnn2c(-c3cc(Cl)cc(Cl)c3Cl)c(Cl)cc12` [Compound A473] as the compound, how does the inhibition in vivo at 25 mg/kg [1] read?
**A.** > 90%

**Q.** `Cc1cc2c(C(C)(C)C)c(C(=O)N[C@H]3CCOc4ccccc43)cnn2c1-c1cc(F)cc(F)c1F` [Compound A471] was tested. Which “% Efficacy” value [4] did it give?
**A.** 39.0%

**Q.** What about the “Geometric Mean Live Heartworm Count” value [4] of the same compound?
**A.** 16.5

**Q.** What about the “efficacy against adult heartworm compared with Interceptor” value [4] of the same compound?
**A.** more effective than the commercial product Interceptor™

**Q.** Which results are given for `Cc1cc2c(N(C)C)c(C(=O)N[C@H]3CCOc4ccccc43)cnn2c1-c1cc(F)cc(Cl)c1Cl` [Compound A493, 7-(2,3-dichloro-5-fluorophenyl)-N-[(4S)-3,4-dihydro-2H-1-benzopyran-4-yl]-4-(dimethylamino)-6-methylpyrrolo[1,2-b]pyridazine-3-carboxamide]?
**A.** % Efficacy [3, 6]: 99.0%; Geometric Mean Live Heartworm Count [3, 6]: 0.3; % Efficacy [3, 7]: 100.0%; Geometric Mean Live Heartworm Count [3, 7]: 0; efficacy against adult heartworm [3, 8]: 100%; efficacy against adult heartworm ([3]; one single dosage of 5 mg/kg monthly for four months): 99%; inhibition in vivo at 25 mg/kg [1]: > 90%

**Q.** `Cc1cc2c(C(C)(C)C)c(C(=O)NN3CCOc4ccccc43)cnn2c1-c1cc(F)cc(Cl)c1Cl` [Compound A495] was tested. Which inhibition in vivo at 25 mg/kg [1] did it give?
**A.** 50 to 70%

**Q.** With `Cc1cc2c(C(C)C)c(C(=O)N[C@H]3CCOc4ccccc43)cnn2c1-c1cc(Cl)cc(Cl)c1` [Compound A465, 7-(3,5-dichlorophenyl)-N-[(4S)-3,4-dihydro-2H-1-benzopyran-4-yl]-6-methyl-4-(propan-2-yl)pyrrolo[1,2-b]pyridazine-3-carboxamide] as the compound, how does the inhibition in vivo at 25 mg/kg [1] read?
**A.** 50 to 70%

**Q.** How did the inhibition in vivo at 25 mg/kg [1] turn out when `Cc1cc2c(N3CC(F)(F)C3)c(C(=O)N[C@H]3CCOc4ccccc43)cnn2c1-c1cc(F)cc(Cl)c1Cl` [Compound A504] was run?
**A.** > 90%
